Results as given in patent US7863415B2 (The Regents of the University of California, priority 2004, dated 2011).
Entries after “also recorded” stand apart in the source; their conditions may differ. Starred links: 1 amine or outer side, 2 acyl side, 3 side chain; linkers in the order of their positions; H or OH if unused. Non-standard residues stand in square brackets, D forms with d. Residues, ends and D or L forms follow the SMILES beside them. X1 = N=C(N)NC(=O)c1nc(Cl)c(N(CC(=O)[*:2])[*:1])nc1N

Legend:
U87 cells = assay: Intracellular translocation into U87 cells by fluorescence microscopy; conditions: 50 μM; 90 and 180 min; 380 nm excitation, 510 nm emission
Source text: Fluorescence Microscopy. […] Excitation light was provided by a xenon arc lamp coupled to the Polychrome IV scanning monochromator (Till Photonics; Grafelfing, Germany) that alternately excites with different wavelengths. Excitation light was delivered by fiber optics to cells through the epifluorescence port of a Nikon E600 microscope coupled to a Nikon Fluor 60× water immersion lens. The detector was an Orca II-ER CCD digital camera (Hamamatsu USA; Bridgewater, N.J.), which is controlled by C-Imaging Simple PCI software (Compix; Cranberry Township, Pa.).
Intracellular emission intensities were collected in regions of interest (ROI) from an average of 4-8 cells/field using Simple PCI imaging software. […] Images were captured as TIFF files (C-imaging Simple PCI software), and light and fluorescent images of the same field were imported in Photoshop 6.0 and vector graphics added using Illustrator 9.0.1 (Adobe; San Jose, Calif.).

[1] = test system: enkephalinase (endopeptidase 24.11); assay: Enzyme digestion with enkephalinase, LC-MS/ESI; format: in vitro ADME, porcine; conditions: for Conclusion (Peptidase: Enkephalinase): 10 μM conjugate, 10 units enzyme, 25° C., pH 7.4, 24 h; for Cleavage by enkephalinase (release of compound 3a): 24 h incubation, LC-MS
Method: (§1) Compound 3b is a C5am-Gly-peptide conjugate containing two D-amino acids, and compound 3c is a C5am-Gly-peptide conjugate coupled to a peptide to generate an analog of opioid peptides that cross the blood brain barrier (BBB). The resultant conjugates (compounds 3a-c) were tested for selective cleavage by the brain peptidase enkephalinase (neutral endopeptidase 24.11; Calbiochem) via incubation for 24 h in the presence or absence of the enzyme, and aliquots from the reaction solutions were then analyzed by LC-MS to identify the C5am-Gly conjugate (compound 3a), starting material, and enzymatic cleavage products (see, Scheme 3). As negative control experiments, the conjugates were analyzed following treatment with (1) bovine pancreatic trypsin (Calbiochem) or (2) the buffer solutions without enzymes.
(§2) Enzyme digestion. Endopeptidase 24.11 (neutral, porcine kidney) and trypsin (bovine pancreas) were purchased from CalBiochem (San Diego, Calif.) and used as received. Enzymatic cleavage experiments using endopeptidase 24.11 were conducted at 25° C. in a pH 7.4 Tris buffer (150 mM NaCl, 50 mM Tris, 0.1% Triton X-100) as recommended by the manufacturer (see also, Barnes et al., J. Neurochem., 64:1826-1832 (1995), Gafford et al., Biochemistry, 22:3265-3271 (1983)). Similarly, trypsin cleavage experiments were conducted at 25° C. in pH 7.4 Dulbecco's phosphate buffered saline (Gibco; Grand Island, N.Y.). The digestion reactions included 10 μM of the amiloride-peptide conjugate and 10 units of enzyme in 250 μL of buffer. Direct aliquots were analyzed by LC-MS/ESI following a 24 hour incubation period.
(§3) Enzyme Digestion Study. Compounds 3a-d were each incubated at 25° C. with 10 units of enkephalinase (endopeptidase 24.11) to determine their susceptibility towards enzymatic cleavage. Reaction aliquots were taken following a 24 hour incubation period and analyzed directly by LC-MS/ESI (Thermo Finnigan LCQ) for the presence of the starting material and the targeted cleavage product, compound 3a (C5am-Gly). […] Since there are no basic amino acid residues in compounds 3a-d, trypsin was employed as a negative control to ensure that any observed cleavage products could be ascribed only to endopeptidase-specific interactions (Jackson, Protein Science, 8:603-613 (1999)).

U87 glioma cells [2] = assay: Glioma cell proliferation, manual cell counts with trypan blue; format: cell-based, human
Method: C(5)-amiloride glycine conjugate (C5am-Gly) inhibits NHE1 in U87 glioma cells and is antiproliferative. […] The inhibitory activity of C5am-Gly against NCX was tested and a systematic log dose screen of C5am-Gly against a panel of glioma cells and primary astrocytes was performed.
Manual cell counts with dye exclusion assays. Identical concentrations of glioma cells can be plated on 60 mm dishes and grown until 50% confluent. Following drug treatments, media containing floating cells can be collected in suspension. Adherent cells can be rinsed in calcium- and magnesium-free phosphate-buffered saline (PBS-CMF) and removed by incubation with 0.25% v/v trypsin for 5 minutes (37° C.). Cell suspensions can be combined with the floating fraction and centrifuged at 350×g for 5 minutes. The resulting pellet (one per dish) can be resuspended in equal volumes of PBS-CMF with 0.4% trypan blue and/or 500 nM Sytox Green. 10 μL aliquots of the suspension can be plated on a hemocytometer, and cells can be counted 5 minutes after staining. Simultaneous staining of cells with trypan (TB) and Sytox Green (SG) can be visualized by switching between visible light and fluorescein green.

[3] = Incubation in buffer solutions without enzymes, LC-MS; format: in vitro ADME
Method: as §1

trypsin = target: T1, trypsin (Bos taurus, UniProt P00760); assay: Enzyme digestion with trypsin (negative control), LC-MS/ESI; format: in vitro ADME, bovine; conditions: for Conclusion (Peptidase: Trypsin): 10 μM conjugate, 10 units enzyme, 25° C., pH 7.4, 24 h; for Cleavage by trypsin (release of compound 3a): 24 h incubation, LC-MS
T1 construct: purchased CalBiochem (San Diego, Calif.); host or cells: bovine pancreas
T1 sequence (P00760 24-246): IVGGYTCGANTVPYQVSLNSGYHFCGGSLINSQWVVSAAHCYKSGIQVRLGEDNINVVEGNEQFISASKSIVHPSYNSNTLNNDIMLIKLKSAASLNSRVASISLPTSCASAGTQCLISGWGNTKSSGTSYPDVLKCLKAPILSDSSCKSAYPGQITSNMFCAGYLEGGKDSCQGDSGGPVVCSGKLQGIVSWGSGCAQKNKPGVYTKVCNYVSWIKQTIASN
Method: as §1, §2, §3

NHE1 = NHE1 (Homo sapiens, UniProt P19634); assay: NHE1 inhibition: sodium-dependent pHi recovery in BCECF-loaded U87 glial cells after ammonium chloride pre-pulse; format: cell-based; parameters: Sodium-dependent proton extrusion in U87 glial cells and in primary astrocytes is mediated by the type 1 sodium proton exchanger (NHE1); endogenous in cells; host or cells: U87 human glioma cells
NHE1, sequence (P19634 whole entry): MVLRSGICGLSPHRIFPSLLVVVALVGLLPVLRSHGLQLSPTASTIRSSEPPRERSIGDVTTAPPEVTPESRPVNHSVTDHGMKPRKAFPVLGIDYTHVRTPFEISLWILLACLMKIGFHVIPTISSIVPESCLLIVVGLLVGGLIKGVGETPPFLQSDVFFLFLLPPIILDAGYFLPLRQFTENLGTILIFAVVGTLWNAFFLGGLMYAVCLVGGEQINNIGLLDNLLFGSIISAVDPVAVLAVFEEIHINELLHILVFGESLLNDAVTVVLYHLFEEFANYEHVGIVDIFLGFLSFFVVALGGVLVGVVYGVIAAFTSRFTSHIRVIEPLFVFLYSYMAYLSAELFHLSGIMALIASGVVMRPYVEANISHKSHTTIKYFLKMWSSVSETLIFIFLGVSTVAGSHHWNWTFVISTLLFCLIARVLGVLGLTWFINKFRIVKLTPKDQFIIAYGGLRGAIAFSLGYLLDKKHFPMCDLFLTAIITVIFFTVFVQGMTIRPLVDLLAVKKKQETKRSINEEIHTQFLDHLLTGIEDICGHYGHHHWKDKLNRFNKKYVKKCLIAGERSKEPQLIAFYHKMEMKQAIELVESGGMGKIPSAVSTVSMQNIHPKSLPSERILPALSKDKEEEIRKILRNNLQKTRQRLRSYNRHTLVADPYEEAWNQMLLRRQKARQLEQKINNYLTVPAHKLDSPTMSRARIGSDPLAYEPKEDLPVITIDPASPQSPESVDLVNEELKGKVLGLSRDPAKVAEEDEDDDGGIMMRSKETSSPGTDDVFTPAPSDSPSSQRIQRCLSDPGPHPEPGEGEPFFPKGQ
Method: Intracellular pH Measurements. U87 glial cells were grown on glass coverslips and incubated for 30 minutes at 37° C. with the pH-sensitive dye, 2′,7′-bis(2-carboxyethyl)-5(6)-carboxyfluorescein-AM (BCECF-AM; Molecular Probes, OR). Cells were rinsed with HEPES Ringer buffer twice and maintained at 37° C. for an additional 15 minutes to permit intracellular hydrolysis of the AM ester; trapping BCECF within the cells. Cells on coverslips were placed in a Hitachi F2000 fluorescent spectrophotometer and excited at 440 and 507 nm with fluorescent emissions recorded at 535 nm (Hegde et al., J. Pharmacol. Exp. Ther., 310:67-74 (2004)).
NHE inhibition by compounds 3a and 3c was evaluated using intracellular pH (pHi) measurements in the U87 human glial cell line (Hegde et al., supra). Cells loaded with BCECF were then acidified using the ammonium chloride pre-pulse method (Roos et al., Physiol Rev, 61:296-434 (1981)). The subsequent sodium-dependent recovery of pHi by these cells in the absence of bicarbonate was monitored using a spectrofluorometer. Sodium-dependent proton extrusion in U87 glial cells and in primary astrocytes is mediated by the type 1 sodium proton exchanger (NHE1) (McLean et al., supra; Hegde et al., supra) and was monitored in the presence or absence of compound 3a or 3c.
IC50 drug determinations for NHE1. This method utilizes spectrofluorometric measurements of [H^+]i as described above. The ammonium chloride prepulse method can be used to acidify cells in the presence of HR that is sodium-substituted with NMDG. Perfusion of the acidified cells with HR that contains sodium causes activation of NHE1 that is inhibited in a concentration-dependent fashion as described in McLean et al., supra.

U87 glioma cells [4] = assay: Glioma cell death, manual cell counts with trypan blue exclusion
NHE1 and NCX = NHE1 and NCX inhibitors from the literature; cited from earlier work
[5] = test system: glioma in poorly vascularized tumor regions; assay: Single intracerebral infusion of DCB in tumor-bearing animals; format: in vivo; conditions: 10 pmol over 2 h
Method: Unfortunately, DCB was associated with 4 of 5 animals dying during the following 12 to 24 h.

[6] = test system: glioma cells and primary astrocytes; assay: Cell entry by confocal microscopy; format: in vitro ADME
[7] = test system: [Ca^2+]i in U87 glioma cells; assay: [Ca2+]i in U87 glioma cells loaded with fura-2AM, quantitative fluorescent microscopy; format: cell-based, human
Method: Therefore, the levels of [Ca^2+]i in U87 glioma cells loaded with fura-2AM were measured using quantitative fluorescent microscopy. […] The ATP-dependent calcium regulatory mechanisms within U87 glioma cells containing fura-2 were then examined. […] ATP synthase operates in reverse when milimolar concentrations of calcium are stored by the mitochondrion (Nicholls, Bioenergetics, 3, Academic Press, London, 3rd edition (2002)).
Quantitative fluorescent microscopy of [Ca^2+]i levels. [Ca^2+]i levels can be measured in cells loaded with either fura-2A or fura-2FFAM under the conditions described above.

[8] = test system: T2, Compound 3c (C5am-Gly-Gly-Gly-Gly-Phe-Leu-OH)
T2 sequence: GGGGFL

[9] = test system: T3, Compound 3b (C5am-Gly-D-Ala-Gly-Phe-D-Leu-OH)
T3 sequence: GXGFX

[10] = test system: T4, Compound 3d (C5am conjugate of the peptide Gly-Gly-Gly-Phe-Leu)
T4 sequence: GGGFL

N=C(N)NC(=O)c1nc(Cl)c(NCC(=O)O)nc1N [Compound 3a]
Intracellular accumulation in U87 cells (U87 cells): no intracellular fluorescence above mean intracellular background; also recorded: failed to detect; also recorded: did not accumulate
Conclusion (Peptidase: Enkephalinase) [1]: Enkephalinase resistant
Cleavage by enkephalinase (release of compound 3a) [1]: unaffected; also recorded: stable
Glioma Effect: antiproliferative concentration (U87 glioma cells [2]; glioma cells): ≦100 μM antiproliferative
Proliferation of U87 glioma cells, % of stage-matched controls (U87 glioma cells [2]; ≦100 μM, 48 h): 22%
Stability in control (buffer) digestion [3]: unaffected
Conclusion (Peptidase: Trypsin) (trypsin): Trypsin resistant
Cleavage by trypsin (release of compound 3a) (trypsin): unaffected; also recorded: stable
IC50 (NHE1; U87 glial cells, sodium-dependent pHi recovery without bicarbonate, read-out: IC50 (μM) +/− SD (NHE inhibition)): 13 ± 7 µM

CC(C)C[C@@H](NC(=O)[C@H](Cc1ccccc1)NC(=O)CNC(=O)[C@@H](C)NC(=O)CNc1nc(N)c(C(=O)NC(=N)N)nc1Cl)C(=O)O [Compound 3b, C5am-Gly-D-Ala-Gly-Phe-D-Leu-OH] (H-[X1][dA]GF[dL]-OH)
Conclusion (Peptidase: Enkephalinase) [1]: Enkephalinase resistant
Cleavage by enkephalinase (release of compound 3a) [1]: not cleaved; also recorded: resistant
Stability in control (buffer) digestion [3]: not cleaved
Conclusion (Peptidase: Trypsin) (trypsin): Trypsin resistant
Cleavage by trypsin (release of compound 3a) (trypsin): not cleaved; also recorded: resistant

N=C(NCc1ccc(Cl)cc1Cl)NC(=O)c1nc(Cl)c(N)nc1N [DCB, 2,4-dichlorobenzamil]
Concentration that killed U87 glioma cells (U87 glioma cells [4]; U87 glioma cells, C2am-Gly within 24 h): 15 µM
Glioma Effect: cytotoxic concentration (U87 glioma cells [4]; glioma cells): 15 μM cytotoxic
Concentration that killed glioma cells (U87 glioma cells [4]; glioma cells, amiloride within 48-72 hours): ≥ 20 µM
Rel. Activity (NHE1 and NCX): NCX > NHE
Animals dying during the following 12 to 24 h [5]: 4 of 5
Glioma death within poorly vascularized tumor regions (histology) [5]: extensive glioma death
Concentration that inhibits NHE1 and reduces pHi (NHE1; U87 glioma cells loaded with BCECF): 50-100 nM
Time to enter glioma cells and primary astrocytes [6]: ≤ 150 min
Effect of pretreatment on [Ca2+]i after calcium release from mitochondrial stores ([7]; U87 glioma cells, FCCP or oligomycin): increase to cytotoxic levels
Persistent increase of [Ca2+]i ([7]; pretreatment followed by oligomycin or FCCP): > 800 nM

Enkephalinase (neutral endopeptidase 24.11, porcine kidney; CalBiochem)
Enzymatic digestion, LC-MS fragments at 24 h; Conclusion [8]: Enkephalinase-mediated release of 3a
Enzymatic digestion, LC-MS fragments at 24 h; Conclusion [9]: Enkephalinase resistant
Enzymatic digestion, LC-MS fragments at 24 h; Conclusion [10]: Enkephalinase resistant
